The values below come from ChEMBL document CHEMBL1159221, “Crystal Structure of Sandaracopimaric Acid, a Lipoxygenase Inhibitor from Juniperus phoenicea” (J Nat Prod, 1995).

In one assay the test system is HGT. Description: Growth inhibition of HGT cells. The class given is functional, cell-based. To be noted: Homo sapiens.
The test system of a further assay is MCF7. As to the kind of experiment: Growth inhibition of human MCF7 cells. In kind it is functional, cell-based.
The nature of assay [1]: Inhibition of soybean 15-lipoxygenase assessed as residual activity by spectrophotometry. More on the design: species or system Glycine max.

The source made the active and inactive calls. No cut-off for these calls is given here.

The term IC50 denotes the concentration at which inhibition is half-maximal. Take `C=C[C@]1(C)C=C2CC[C@@H]3[C@](C)(CCC[C@@]3(C)C(=O)O)[C@H]2CC1` [SANDARACOPIMARIC ACID]: the outcome with HGT and in the assay on MCF7 was inactive. Also, the IC50 in assay [1] turned out to be 650 µM.
